Source: ChEMBL document CHEMBL1811818, “Arthrobotrisins A-C, oligosporons from the nematode-trapping fungus Arthrobotrys oligospora” (2011)
Calls of active or inactive are those of the source. The rule behind the calls is not given here.

Legend:
Bacillus sp. [1] = assay: Antibacterial activity against Bacillus sp. 3.38 at 150 ug by agar diffusion assay; type: functional; settings: Bacillus sp. (in: firmicutes), read-out: IZ
Panagrellus redivivus = assay: Nematicidal activity against Panagrellus redivivus assessed as effect on larval development at 200 ug/mL after 48 hrs; type: functional, organism-based
Bacillus sp. [2] = assay: Antibacterial activity against Bacillus sp. 3.38 at 300 ug by agar diffusion assay; type: functional; settings: Bacillus sp. (in: firmicutes), read-out: IZ
Bacillus subtilis [3] = assay: Antibacterial activity against Bacillus subtilis 3.34 at 25 ug by agar diffusion assay; type: functional; settings: read-out: IZ
Bacillus sp. [4] = assay: Antibacterial activity against Bacillus sp. 3.38 at 50 ug by agar diffusion assay; type: functional; settings: Bacillus sp. (in: firmicutes), read-out: DIZ
Staphylococcus aureus = assay: Antibacterial activity against Staphylococcus aureus 3.17 at 50 ug by agar diffusion assay; type: functional; settings: read-out: DIZ
Bacillus subtilis [5] = assay: Antibacterial activity against Bacillus subtilis 3.34 at 50 ug by agar diffusion assay; type: functional; settings: read-out: IZ
Bacillus subtilis [6] = assay: Antibacterial activity against Bacillus subtilis 3.34 assessed as by agar diffusion assay; type: functional
Bacillus subtilis [7] = assay: Antibacterial activity against Bacillus subtilis 3.34 at 10 ug by agar diffusion assay; type: functional; settings: read-out: DIZ

In the case of `CC(C)=CCC/C(C)=C/C[C@H](O)/C(C)=C/[C@H](O)[C@]12O[C@H]1[C@H](O)C(CO)=C[C@@H]2O` [ARTHROBOTRISIN B], the zone of inhibition at 150 µg/disc (Bacillus sp. [1]) is reported as 4.7 mm, the Activity (Panagrellus redivivus) is reported as “inactive” and the zone of inhibition at 300 µg/disc (Bacillus sp. [2]) is reported as 8 mm.
Molecule `CC(C)=CCC/C(C)=C/C[C@H](O)/C(C)=C/[C@H](O)[C@]12O[C@H]1[C@@H](O)C(CO)=C[C@@H]2O` [ARTHROBOTRISIN C] has a zone of inhibition at 25 µg/disc (Bacillus subtilis [3]) of 14.2 mm, a zone of inhibition at 50 µg/disc (Bacillus sp. [4]) of 9.1 mm and a zone of inhibition at 50 µg/disc (Staphylococcus aureus) of 7 mm. The zone of inhibition at 50 µg/disc (Bacillus subtilis [5]) was 19.4 mm, the MIC (Bacillus subtilis [6]) was 5 µg and the Activity (Panagrellus redivivus) was “inactive”.
Molecule `O=C(N[C@H](CO)[C@H](O)c1ccc([N+](=O)[O-])cc1)C(Cl)Cl` [CHLORAMPHENICOL] has a zone of inhibition at 10 µg/disc (Bacillus subtilis [7]) of 36.3 mm.
